Data reported in patent publication US6376670B1, “Quinoline-indole antimicrobial agents, uses and compositions related thereto” (Sepracor Inc., priority 1997, dated 2002).
Converted amounts (≈) assume the structure as drawn. Like-named read-outs stand apart in the source and are kept apart here.

How the values were obtained:
Test in all cases: Determination of MIC values (BHI broth, 96 well microtiter plate)
Assay type in all cases: cell-based
[1] = system: vancomycin-resistant Enterococcus spp. (VRE); settings: for MIC: Enterococcus, VRE, read-out: MIC VREF
Outline: (§1)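 BHI broth microdilution; final compound 25, 12.5, 6.25, 3.125, 1.56, 0.78, 0.39, 0 µg/mL (1% DMSO). Inoculum 10^5–10^6 cells/mL; 37° C, ~7-10% CO2, ~16 h. MIC = lowest concentration, no observable growth.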

Streptococcus pneumoniae = settings: Streptococcus pneumoniae, read-out: MIC S. pneu
Outline: as §1

[2] = system: methicillin-resistant Staphylococcus aureus (MRSA); settings: MRSA; for MIC: Staphylococcus aureus, read-out: MIC MRSA
Outline: as §1

[3] = 16 h, BHI broth, 37° C., about 16 hours
[4] = BHI broth, 37° C., about 16 hours
[5] = VREF, BHI broth, overnight 37° C.
[6] = S. pneu, BHI broth, overnight 37° C.
[7] = 16 h, BHI broth, 37° C., overnight (about 16 hours)
[8] = BHI broth, 37° C., overnight (about 16 hours)

SMILES | MIC [1, 3] [µg/mL] | MIC (Streptococcus pneumoniae; [4]) [µg/mL] | MIC [2, 3] [µg/mL] | MIC [1, 5] [µg/mL] | MIC (Streptococcus pneumoniae; [6]) [µg/mL] | MIC ([2]; BHI broth, overnight 37° C.) [µg/mL] | further results
NCC1CCCC(CNC(=O)c2cc(-c3c[nH]c4ccc(Br)cc34)nc3cc(Cl)cc(Cl)c23)C1 (stereo not drawn) [Example 248] | – | – | – | < 7 | < 7 | < 7 | –
NCc1ccc(CNC(=O)c2cc(-c3c[nH]c4ccc(Br)cc34)c3ccccc3n2)cc1 [Example 306] | – | – | – | < 7 | < 7 | < 7 | –
Cn1cc(-c2ccc3cc(Cl)ccc3n2)c2cc(C#N)ccc21 [Example 218] | – | – | – | > 25 | > 25 | < 7 | –
NCC1CCCC(CNC(=O)c2cc(-c3c[nH]c4ccc(Br)cc34)nc3ccc(Cl)cc23)C1 (stereo not drawn) [Example 132] | – | – | – | – | – | – | MIC [1, 7]: < 7 µg/mL; MIC (Streptococcus pneumoniae; [8]): < 7 µg/mL; MIC [2, 7]: < 7 µg/mL
Cn1cc(-c2cc(C(=O)NCc3cccc(CN)c3)c3ccc(F)cc3n2)c2cc(Br)ccc21 [Example 327] | – | – | – | > 25 | < 7 | < 25 | –
Clc1ccc2nc(-c3c[nH]c4ccc(OCc5ccccc5)cc34)ccc2c1 [Example 194] | – | – | – | – | – | – | MIC [1, 7]: > 25 µg/mL; MIC (Streptococcus pneumoniae; [8]): < 7 µg/mL; MIC [2, 7]: < 7 µg/mL
NC1CCCCC1NC(=O)c1cc(-c2c[nH]c3ccc(Br)cc23)nc2ccc(I)cc12 (stereo not drawn) [Example 112] | – | – | – | – | – | – | MIC [1, 7]: < 7 µg/mL; MIC (Streptococcus pneumoniae; [8]): < 7 µg/mL; MIC [2, 7]: < 7 µg/mL
NCc1ccc(CNC(=O)c2cc(-c3c[nH]c4ccc(Cl)cc34)nc3c(Br)cccc23)cc1 [Example 231] | – | – | – | < 7 | < 7 | < 7 | –
O=C(c1cc(-c2c[nH]c3ccc(Br)cc23)nc2ccc(Cl)cc12)N1CCNCC1 [Example 136] | – | – | – | – | – | – | MIC [1, 7]: < 7 µg/mL; MIC (Streptococcus pneumoniae; [8]): < 7 µg/mL; MIC [2, 7]: < 7 µg/mL
NCc1ccc(CNC(=O)c2cc(-c3c[nH]c4ccc(Cl)cc34)nc3ccc(Br)cc23)cc1 [Example 229] | – | – | – | < 7 | < 7 | < 7 | –
C[Si](C)(C)CCOC(=O)n1cc(/C=N/c2ccc(I)cc2)c2cc(Br)ccc21 [Example 383] | – | – | – | – | – | – | MIC [1]: > 25 µg/mL; MIC (Streptococcus pneumoniae): > 25 µg/mL; MIC [2]: > 25 µg/mL
NCCNC(=O)c1cc(-c2c[nH]c3ccc(Cl)cc23)nc2ccc(Br)cc12 [Example 313] | – | – | – | < 7 | < 7 | < 7 | –
Cc1cccc2c(-c3ccc4cc(Cl)ccc4n3)c[nH]c12 [Example 291] | – | – | – | > 25 | > 25 | > 25 | –
N#Cc1ccc2[nH]cc(-c3ccc4cc(Cl)ccc4n3)c2c1 [Example 200] | – | – | – | > 25 | > 25 | – | MIC MRSA ([2]; BHI broth, overnight 37° C.): < 7 µg/mL
NCCCCNC(=O)c1cc(-c2c[nH]c3ccc(Br)cc23)nc2ccc(I)cc12 [Example 109] | – | – | – | – | – | – | MIC [1, 7]: < 7 µg/mL; MIC (Streptococcus pneumoniae; [8]): < 7 µg/mL; MIC [2, 7]: < 7 µg/mL
NCc1ccc(CNC(=O)c2cc(-c3c[nH]c4ccc(Br)cc34)nc3cc(Cl)c(C#CCN4CCc5ccccc5C4)cc23)cc1 [Example 281] | – | – | – | > 25 | > 25 | < 25 | –
Cn1cc(-c2cc(C(=O)NC3CCC(N)CC3)c3ccc(I)cc3n2)c2cc(Br)ccc21 (stereo not drawn) [Example 333] | – | – | – | < 7 | < 7 | < 7 | –
NCc1ccc(CNC(=O)c2cc(-c3c[nH]c4ccc(Br)cc34)nc3ccccc23)cc1 [compound 9] | – | – | – | – | – | – | MIC [1, 7]: < 7 µg/mL; MIC (Streptococcus pneumoniae; [8]): < 7 µg/mL; MIC [2, 7]: < 7 µg/mL
NCc1ccc(CNC(=O)c2cc(-c3c[nH]c4ccc(Br)cc34)nc3ccc(C#CCN4CC=CCC4)cc23)cc1 [Example 241] | – | – | – | < 7 | < 7 | < 7 | –
Cc1ccc2nc(-c3c[nH]c4ccc(Br)cc34)cc(C(=O)NCc3ccc(CN)cc3)c2c1 [Example 104] | – | – | – | – | – | – | MIC [1, 7]: < 7 µg/mL; MIC (Streptococcus pneumoniae; [8]): < 7 µg/mL; MIC [2, 7]: < 7 µg/mL
NCCNC(=O)c1cc(-c2c[nH]c3ccc(Br)cc23)nc2c(Br)cccc12 [Example 315] | – | – | – | < 7 | < 7 | < 7 | –
C[Si](C)(C)CCOC(=O)n1cc(C=O)c2cc(Br)ccc21 [Example 382] | – | – | – | – | – | – | MIC [1]: > 25 µg/mL; MIC (Streptococcus pneumoniae): > 25 µg/mL; MIC [2]: > 25 µg/mL
NCc1ccc(CNC(=O)c2cc(-c3c[nH]c4ccc(Br)cc34)nc3ccc(C#CCN4CCCC4)cc23)cc1 [Example 238] | – | – | – | < 25 | < 7 | < 7 | –
NCc1ccc(CNC(=O)c2cc(-c3c[nH]c4ccc(Br)cc34)nc3c(Cl)cc(I)cc23)cc1 [Example 102] | – | – | – | – | – | – | MIC [1, 7]: < 7 µg/mL; MIC (Streptococcus pneumoniae; [8]): < 7 µg/mL; MIC [2, 7]: < 7 µg/mL
NCc1ccc(CNC(=O)c2cc(-c3c[nH]c4ccc(Br)cc34)nc3cc(Cl)cc(Cl)c23)cc1 [Example 209] | – | – | – | < 7 | < 7 | < 7 | –
c1ccc2nc(-c3c[nH]c4ccccc34)ccc2c1 [Example 163] | – | – | – | – | – | – | MIC [1, 7]: > 25 µg/mL; MIC (Streptococcus pneumoniae; [8]): > 25 µg/mL; MIC [2, 7]: < 25 µg/mL
Cn1cc(-c2cc(C(=O)NCCN)c3cc(C#CCN4CCCCC4)ccc3n2)c2cc(Br)ccc21 [Example 377] | – | – | – | < 7 | < 7 | < 7 | –
NCc1ccc(CNC(=O)c2cc(-c3c[nH]c4ccc(Cl)cc34)nc3cc(Br)ccc23)cc1 [Example 230] | – | – | – | < 7 | < 7 | < 7 | –

Now from value to compound, other results behind:

MIC [1, 3] [µg/mL] | MIC (Streptococcus pneumoniae; [4]) [µg/mL] | MIC [2, 3] [µg/mL] | MIC [1, 5] [µg/mL] | MIC (Streptococcus pneumoniae; [6]) [µg/mL] | MIC ([2]; BHI broth, overnight 37° C.) [µg/mL] | SMILES | further results
> 25 | > 25 | > 25 | – | – | – | Cc1ccc2nc(-c3c[nH]c4c(C)cccc34)ccc2c1 [Example 467] | –
– | – | – | > 25 | < 7 | < 7 | Clc1cc(-c2c[nH]c3c(Cl)cccc23)nc2ccccc12 [Example 344] | –
> 25 | > 25 | 25 (≈ 91.1 µM) | – | – | – | Cc1ccc2nc(-c3c[nH]c4ccc(O)cc34)ccc2c1 [Example 468] | –
< 7 | < 7 | < 7 | – | – | – | OCc1cc(-c2c[nH]c3ccc(Br)cc23)nc2c(Br)cccc12 [Example 458] | –
> 25 | < 7 | < 7 | – | – | – | Clc1cc(-c2c[nH]c3ccccc23)nc2ccccc12 [Example 451] | –
– | – | – | < 7 | < 25 | < 7 | Cn1cc(-c2cc(C(=O)NCc3ccc(CN)cc3)c3cc(C#CCNCCc4ccccc4)ccc3n2)c2cc(Br)ccc21 [Example 389] | –
< 7 | < 7 | < 7 | – | – | – | NCCNC(=O)c1cc(-c2c[nH]c3ccc(Br)cc23)nc2ccc(C#CCN3CCSCC3)cc12 [Example 525] | –
– | – | – | > 25 | > 25 | > 25 | Cn1cc(-c2cc(C(=O)NCc3ccc(CN)cc3)c3cc(C#CCN4CC=CC4)ccc3n2)c2cc(Br)ccc21 [Example 396] | –
> 25 | 25 (≈ 71.9 µM) | 25 (≈ 71.9 µM) | – | – | – | Clc1ccc2c(Cl)cc(-c3c[nH]c4cc(Cl)ccc34)nc2c1 [Example 463] | –
– | < 7 | < 7 | – | – | – | OCc1cc(-c2c[nH]c3ccc(Br)cc23)nc2cc(Cl)ccc12 [Example 456] | MIC VREF [1, 4]: <7 µg/mL
– | – | – | > 25 | > 25 | > 25 | O=[N+]([O-])c1ccc2[nH]cc(-c3cc(Cl)c4ccccc4n3)c2c1 [Example 349] | –
– | – | – | < 7 | < 7 | < 7 | Cn1cc(-c2cc(C(=O)NCc3cccc(CN)c3)c3cc(I)ccc3n2)c2cc(Br)ccc21 [Example 356] | –
> 25 | > 25 | > 25 | – | – | – | Cc1cccc2ccc(-c3c[nH]c4cc(F)ccc34)nc12 [Example 423] | –
< 7 | < 7 | < 7 | – | – | – | OCc1cc(-c2c[nH]c3ccc(Br)cc23)nc2ccc(Br)cc12 [Example 445] | –
> 25 | > 25 | > 25 | – | – | – | COc1ccc2nc(-c3c(C)[nH]c4ccc(OC)cc34)ccc2c1 [Example 428] | –
– | – | – | < 25 | < 7 | < 7 | CCOc1cc(-c2c[nH]c3ccc(Br)cc23)nc2ccc(I)cc12 [Example 364] | –
– | – | – | > 25 | < 7 | < 7 | Cc1[nH]c2ccccc2c1-c1cc(Cl)c2ccccc2n1 [Example 352] | –
< 25 | < 25 | < 25 | – | – | – | NCCCCCNC(=O)c1cc(-c2c[nH]c3cc(F)ccc23)nc2cc(F)ccc12 [Example 497] | –
< 7 | < 7 | < 7 | – | – | – | NCC(O)CNC(=O)c1cc(-c2c[nH]c3ccc(Br)cc23)nc2cc(Cl)cc(Cl)c12 (stereo not drawn) [Example 533] | –
< 25 | < 7 | < 7 | – | – | – | Cc1[nH]c2ccc(Cl)cc2c1-c1cc(Cl)c2ccccc2n1 [Example 465] | –
– | – | – | > 25 | > 25 | > 25 | COc1ccc2[nH]c(C)c(-c3ccc4c([N+](=O)[O-])cccc4n3)c2c1 [Example 386] | –
> 25 | > 25 | > 25 | – | – | – | Cc1ccc2nc(-c3c[nH]c4cc(F)ccc34)ccc2c1 [Example 435] | –
< 7 | < 7 | < 7 | – | – | – | Clc1ccc2c(Cl)cc(-c3c[nH]c4ccccc34)nc2c1 [Example 482] | –
> 25 | > 25 | > 25 | – | – | – | COc1ccc2[nH]cc(-c3ccc4cc(C)ccc4n3)c2c1 [Example 438] | –
< 7 | < 7 | < 7 | – | – | – | OCc1cc(-c2c[nH]c3ccc(Br)cc23)nc2c(Cl)cccc12 [Example 457] | –
